Results on 25 compounds are retold here after patent US20240124412A1, “IKAROS ZINC FINGER FAMILY DEGRADERS AND USES THEREOF” (Gilead Sciences, Inc., priority 2021, published 2024).

One experiment deals with T1, IKZF1 (Homo sapiens, UniProt Q13422+Q96SW2).
T1 construct: expressed in transfected cells
Briefly: HiBiT protein tagging assay, in vitro IKZF1 degradation (HEK293). The class given is cell-based. The conditions noted are these: HEK293, 18-24 hr incubation, normalized to DMSO control; for Dmax: read-out: IKZF1 Dmax (maximum degradation at the highest concentration tested); for DC50: read-out: IKZF1 EC50. On the procedure:
(§1) In vitro degradation of IKZF1 and IKZF2 was measured using HiBiT protein tagging and detection technology (Promega).
(§2) HiBiT technology (Promega) was used to develop the quantitative assays to measure the cellular IKZFs level by tagging an 11 amino acid HiBit peptides VSGWRLFKKIS (SEQ ID NO:1) to the protein of interest. Reporter plasmids were generated by fusing a linker sequence (GSSGGSSG; SEQ ID NO:2) followed by the HiBiT tag at the C terminus of IKZF1 and IKZF2. The fusion fragments were subsequently cloned into pcDNA5 pcDNA™5/FRT/TO plasmids (Thermo Fisher, cat #V652020) downstream of the Tetracycline operator. The resulting plasmids were co-transfected with pOG44 Flp-Recombinase Expression Vector (Thermo Fisher, cat #V600520) into Flp-In™ T-REx HEK293 line (Thermo Fisher, cat #R78077) and a stable cell pool was selected by adding 100 μg/ml of Hygromycin (Thermo Fisher, cat #10687010). The reporter cell enabled Tet-On inducible reporter expression from a single copy of the integrated gene.
(§3) On Day 1, Cells were grown to ˜80% confluency in TC medium (DMEM Glutamax (Gibco10569), 10% Tet free FBS (Takara 631106), and PenStrep Glutamin (Gibco 10378)) in tissue culture flasks. Doxycycline was then added to a final concentration of 1 μg/ml to induce reporter expression at 37° C. overnight.
(§4) On Day 2, 125 nL of serially-diluted solution of testing compounds were dispensed into 384-well white solid assay plates via ECHO acoustic liquid handler. Cells were lifted by 0.25% Trypsin (Gibco 25200) then pelleted by centrifugation (Beckman Avanti J-E) at 500×g for 5 min. Cell pellets were resuspended in TC medium at the concentration of 3e5/mL and 25 μL of cell suspension were added into each well of compound-spotted plates. The plates were returned to a 37° C. incubator overnight (18-24 hr).
(§5) On Day 3, assay plates were removed from the TC incubator and 25 μL of Nano-Glo lytic detection system (Promega, cat #N3030) was added to each well. Plates were incubated at r.t. for 3 min with shaking, and luminescence was read using an Envision reader (Perkin Elmer).
(§6) All raw data was normalized to DMSO control (final concentration: 0.5%) wells as POC and plotted out for EC50 and Dmax (Maximum degradation at the highest concentration tested in the assay).
For orientation: HiBiT is a short tag that completes a luciferase, so light tracks the accessible tagged protein.

The next experiment has as its target T2, IKZF2 (Homo sapiens, UniProt Q96SW2+Q9UKS7).
T2 construct: expressed in transfected cells
Briefly: HiBiT protein tagging assay, in vitro IKZF2 degradation (HEK293). The class given is cell-based. The settings on record: HEK293, 18-24 hr incubation, normalized to DMSO control; for Dmax: HEK293, HiBiT assay, read-out: IKZF2 Dmax (maximum degradation at the highest concentration tested); for DC50: HiBiT assay, read-out: IKZF2 EC50. The protocol: as §1, §2, §3, §4, §5, §6

T2 sequence (Q9UKS7 1-500 isoform Q9UKS7-2): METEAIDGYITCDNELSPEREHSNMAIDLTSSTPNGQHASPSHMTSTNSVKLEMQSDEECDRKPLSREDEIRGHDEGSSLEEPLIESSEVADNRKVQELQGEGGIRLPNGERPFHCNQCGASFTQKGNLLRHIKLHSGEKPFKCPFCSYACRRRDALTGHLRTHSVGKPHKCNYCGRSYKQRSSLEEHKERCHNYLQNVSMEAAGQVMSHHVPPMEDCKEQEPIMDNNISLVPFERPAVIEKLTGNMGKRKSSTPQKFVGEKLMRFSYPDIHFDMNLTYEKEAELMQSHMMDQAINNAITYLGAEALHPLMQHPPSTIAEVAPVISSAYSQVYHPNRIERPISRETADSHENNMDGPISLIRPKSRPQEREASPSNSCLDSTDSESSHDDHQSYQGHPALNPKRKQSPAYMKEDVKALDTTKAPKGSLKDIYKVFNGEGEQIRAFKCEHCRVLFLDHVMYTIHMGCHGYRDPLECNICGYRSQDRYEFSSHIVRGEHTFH
T2 sequence (Q96SW2 whole entry): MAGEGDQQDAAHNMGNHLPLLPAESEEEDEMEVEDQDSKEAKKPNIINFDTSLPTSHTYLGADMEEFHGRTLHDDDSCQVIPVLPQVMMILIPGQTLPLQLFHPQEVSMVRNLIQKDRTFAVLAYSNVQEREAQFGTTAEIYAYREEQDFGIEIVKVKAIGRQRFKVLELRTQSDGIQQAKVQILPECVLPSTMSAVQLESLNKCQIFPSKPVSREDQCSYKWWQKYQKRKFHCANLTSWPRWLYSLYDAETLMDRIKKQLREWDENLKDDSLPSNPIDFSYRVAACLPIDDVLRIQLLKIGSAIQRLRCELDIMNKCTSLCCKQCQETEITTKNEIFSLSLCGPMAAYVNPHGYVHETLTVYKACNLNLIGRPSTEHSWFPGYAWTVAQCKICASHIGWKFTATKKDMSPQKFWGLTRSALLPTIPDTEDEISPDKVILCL
T2 sequence (Q16531 whole entry partner): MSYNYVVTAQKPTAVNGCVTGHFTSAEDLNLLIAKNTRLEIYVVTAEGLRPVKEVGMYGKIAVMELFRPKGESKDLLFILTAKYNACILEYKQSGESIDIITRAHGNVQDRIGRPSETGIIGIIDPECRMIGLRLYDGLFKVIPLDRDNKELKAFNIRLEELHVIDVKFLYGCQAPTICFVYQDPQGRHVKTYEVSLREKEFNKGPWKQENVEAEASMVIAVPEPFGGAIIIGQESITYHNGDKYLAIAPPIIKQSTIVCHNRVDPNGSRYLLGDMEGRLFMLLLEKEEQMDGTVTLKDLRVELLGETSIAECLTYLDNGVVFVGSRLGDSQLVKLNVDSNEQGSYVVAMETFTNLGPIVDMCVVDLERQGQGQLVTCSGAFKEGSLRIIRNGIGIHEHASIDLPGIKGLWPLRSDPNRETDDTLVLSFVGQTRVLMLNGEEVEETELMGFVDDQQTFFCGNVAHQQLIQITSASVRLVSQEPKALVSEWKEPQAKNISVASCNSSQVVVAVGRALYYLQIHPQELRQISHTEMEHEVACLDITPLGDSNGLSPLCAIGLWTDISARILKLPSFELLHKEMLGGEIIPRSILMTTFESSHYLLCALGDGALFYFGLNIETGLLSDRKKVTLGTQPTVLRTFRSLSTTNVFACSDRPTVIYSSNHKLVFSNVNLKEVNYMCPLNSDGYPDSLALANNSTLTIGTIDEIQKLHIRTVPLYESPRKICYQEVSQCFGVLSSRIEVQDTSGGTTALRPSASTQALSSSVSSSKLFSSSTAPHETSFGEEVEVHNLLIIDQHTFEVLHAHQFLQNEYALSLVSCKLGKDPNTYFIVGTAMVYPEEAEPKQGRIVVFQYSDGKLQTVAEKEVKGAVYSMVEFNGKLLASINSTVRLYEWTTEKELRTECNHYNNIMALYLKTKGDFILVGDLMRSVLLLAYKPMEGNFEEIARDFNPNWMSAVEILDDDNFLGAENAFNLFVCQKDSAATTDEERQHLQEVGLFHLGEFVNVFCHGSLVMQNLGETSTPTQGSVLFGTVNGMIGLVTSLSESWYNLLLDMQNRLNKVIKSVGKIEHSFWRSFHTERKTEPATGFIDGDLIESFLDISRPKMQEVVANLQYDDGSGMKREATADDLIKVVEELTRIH
T1 sequence (Q13422 whole entry): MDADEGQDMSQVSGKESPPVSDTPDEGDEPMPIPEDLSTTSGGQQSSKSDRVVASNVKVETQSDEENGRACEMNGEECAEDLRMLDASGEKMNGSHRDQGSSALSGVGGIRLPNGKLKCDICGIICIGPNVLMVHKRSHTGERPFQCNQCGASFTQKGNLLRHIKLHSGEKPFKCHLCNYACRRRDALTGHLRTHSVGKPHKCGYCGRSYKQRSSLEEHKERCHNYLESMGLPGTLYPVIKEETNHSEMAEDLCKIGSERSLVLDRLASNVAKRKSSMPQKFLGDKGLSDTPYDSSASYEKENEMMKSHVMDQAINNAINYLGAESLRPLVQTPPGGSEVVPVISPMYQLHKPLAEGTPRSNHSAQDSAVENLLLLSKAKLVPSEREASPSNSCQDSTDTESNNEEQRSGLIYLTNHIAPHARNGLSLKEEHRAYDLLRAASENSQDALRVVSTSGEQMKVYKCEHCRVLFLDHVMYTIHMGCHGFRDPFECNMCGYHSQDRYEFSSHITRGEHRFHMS
T1 sequence (Q96SW2 whole entry): as the sequence (Q96SW2 whole entry) above
T1 sequence (Q16531 whole entry partner): as the sequence (Q16531 whole entry partner) above

In the case of `O=C1CCC(N2Cc3cc(CNC4CCC5(CCOCC5)CC4)ccc3C2=O)C(=O)N1` (centres unmarked) [Example 88], the Dmax at IKZF1 came to 64%; on IKZF2, 91%. Also, the DC50 at IKZF1 stood at 297 nM; at IKZF2 it was 296 nM.

As for `N#C[C@H]1CC[C@H](NCc2ccc3c(c2)CN(C2CCC(=O)NC2=O)C3=O)CC1` (some centres unmarked) [Example 80], on IKZF1, the Dmax is 57% and the DC50 came out at 253 nM. Also, on IKZF2, the Dmax came out at 92% and the DC50 turned out to be 166 nM.

As to `CN(Cc1ccc2c(c1)CN(C1CCC(=O)NC1=O)C2=O)C1CCN(Cc2ccccc2)CC1` (centres unmarked) [Example 18, 3-(5-(((1-benzylpiperidin-4-yl)(methyl)amino)methyl)-1-oxoisoindolin-2-yl)piperidine-2,6-dione], the values for the DC50 at IKZF1 and on IKZF2 were more than 10000 nM and 328 nM, respectively. The Dmax at IKZF2 amounted to 21%.

Consider `O=C1CCC(N2Cc3cc(CNC4CCCC5(CC5)C4)ccc3C2=O)C(=O)N1` (centres unmarked) [Example 132], for which the Dmax on IKZF1 stood at 58%; at IKZF2 it was 84%. Further, the results for the DC50 on IKZF1 and on IKZF2 were 146 nM and 97 nM, respectively.

Consider `O=C1CCC(N2Cc3cc(CNC45CCC(CO)(CC4)C5)ccc3C2=O)C(=O)N1` (centres unmarked) [Example 142], for which, at IKZF1, the Dmax was 26% and the DC50 is 374 nM. At IKZF2, the Dmax turned out to be 99% and the DC50 was 218 nM.

Regarding `O=C1CCC(N2Cc3cc(CNC4Cc5ccccc5N(Cc5ccccc5)C4)ccc3C2=O)C(=O)N1` (centres unmarked) [Example 25, 3-(5-(((1-benzyl-1,2,3,4-tetrahydroquinolin-3-yl)amino)methyl)-1-oxoisoindolin-2-yl)piperidine-2,6-dione], the Dmax at IKZF1 was determined as 38%; at IKZF2, 39%. Moreover, the DC50 worked out at 84 nM at IKZF1 and 1800 nM at IKZF2.

On to `O=C1CCC(N2Cc3cc(CNC4CCCC(c5ccccc5)C4)ccc3C2=O)C(=O)N1` (centres unmarked) [Example 50], for which, on IKZF1, the Dmax was 30% and the DC50 stood at 47 nM. Besides, on IKZF2, the Dmax came to 51% and the DC50 was 166 nM.

Regarding `O=C1CCC(N2Cc3cc(CNC4CCCC(C(F)(F)F)C4)ccc3C2=O)C(=O)N1` (stereo not drawn) [Example 128, 3-(1-oxo-5-((((1,3-trans)-3-(trifluoromethyl)cyclohexyl)amino)methyl)isoindolin-2-yl)piperidine-2,6-dione], the Dmax is 42% at IKZF1 and 64% at IKZF2. For the same compound, the DC50 on IKZF1 worked out at 104 nM; at IKZF2 it was 181 nM.

Consider `O=C1CCC(N2Cc3cc(CN[C@H]4CCC[C@H](Cc5ccccc5)C4)ccc3C2=O)C(=O)N1` (relative stereo) [Example 11, 3-(5-((((1,3-trans)-3-benzylcyclohexyl)amino)methyl)-1-oxoisoindolin-2-yl)piperidine-2,6-dione], for which, on IKZF1, the Dmax amounted to 67% and the DC50 was found to be 25 nM. On IKZF2, the Dmax was 68% and the DC50 stood at 81 nM.

On to `O=C1CCC(N2Cc3cc(CNC4CCN(C(=O)OCc5ccccc5)CC4)ccc3C2=O)C(=O)N1` (centres unmarked) [Example 3, benzyl 4-(((2-(2,6-dioxopiperidin-3-yl)-1-oxoisoindolin-5-yl)methyl)amino)piperidine-1-carboxylate], for which, at IKZF1, the Dmax was found to be 95% and the DC50 is 7 nM. Further, at IKZF2, the Dmax came to 94% and the DC50 amounted to 39 nM.

As for `O=C1CCC(N2Cc3cc(CNC4CC(c5ccccc5)CN(Cc5ccccc5)C4)ccc3C2=O)C(=O)N1` (centres unmarked) [Example 109, 3-(5-(((1-benzyl-5-phenylpiperidin-3-yl)amino)methyl)-1-oxoisoindolin-2-yl)piperidine-2,6-dione], on IKZF1, the Dmax worked out at 71% and the DC50 turned out to be 45 nM. Besides, on IKZF2, the Dmax was 30% and the DC50 was 121 nM.

`O=C1CCC(N2Cc3cc(CN[C@@H]4CCC[C@H](O)C4)ccc3C2=O)C(=O)N1` (some centres unmarked) [Example 82]: at IKZF1, the DC50 was more than 10000 nM. For the same compound, on IKZF2, the Dmax turned out to be 71% and the DC50 was found to be 1300 nM.

Consider `O=C1CCC(N2Cc3cc(CN[C@H]4CC[C@@H](c5ccccc5)CC4)ccc3C2=O)C(=O)N1` (stereo partly drawn) [Example 31, 3-(1-oxo-5-((((1,4-cis)-4-phenylcyclohexyl)amino)methyl)isoindolin-2-yl)piperidine-2,6-dione], for which, at IKZF1, the Dmax turned out to be 97% and the DC50 was determined as 3 nM. Moreover, at IKZF2, the Dmax amounted to 83% and the DC50 is 40 nM.

Take `O=C1CCC(N2Cc3cc(CN[C@@H]4CCCC[C@@H]4Cc4ccccc4)ccc3C2=O)C(=O)N1` (some centres unmarked) [Example 68]: on IKZF1, the Dmax was determined as 68% and the DC50 turned out to be 70 nM. Also, on IKZF2, the Dmax was 68% and the DC50 worked out at 154 nM.

Turning to `O=C1CCC(N2Cc3cc(CN[C@H]4CC[C@@](O)(c5ccccc5)CC4)ccc3C2=O)C(=O)N1` (some centres unmarked) [Example 66], at IKZF1, the Dmax was 77% and the DC50 is 102 nM. In addition, on IKZF2, the Dmax came to 83% and the DC50 came out at 319 nM.

With `O=C1CCC(N2Cc3cc(CNCC4CCCc5ccccc54)ccc3C2=O)C(=O)N1` (centres unmarked) [Example 22, 3-(1-oxo-5-((((1,2,3,4-tetrahydronaphthalen-1-yl)methyl)amino)methyl)isoindolin-2-yl)piperidine-2,6-dione], on IKZF1, the Dmax stood at 78% and the DC50 was 25 nM. On IKZF2, the Dmax was 36% and the DC50 was found to be 110 nM.

For the compound `O=C1CCC(N2Cc3cc(CNC4CC5CC(C5)C4)ccc3C2=O)C(=O)N1` (centres unmarked) [Example 74], the Dmax on IKZF1 amounted to 53%; on IKZF2 it was 82%. Besides, the DC50 is 52 nM on IKZF1 and 48 nM at IKZF2.

In the case of `O=C1CCC(N2Cc3cc(CN[C@H]4CC[C@H](c5ccccc5)CC4)ccc3C2=O)C(=O)N1` (stereo partly drawn) [Example 32, 3-(1-oxo-5-((((1,4-trans)-4-phenylcyclohexyl)amino)methyl)isoindolin-2-yl)piperidine-2,6-dione], the Dmax is 48% on IKZF1 and 85% on IKZF2. For the same compound, the DC50 on IKZF1 stood at 54 nM; on IKZF2, 71 nM.

On to `O=C1CCC(N2Cc3cc(CNC4CCN(c5ccccn5)CC4)ccc3C2=O)C(=O)N1` (centres unmarked) [Example 35, 3-(1-oxo-5-(((1-(pyridin-2-yl)piperidin-4-yl)amino)methyl)isoindolin-2-yl)piperidine-2,6-dione], for which, on IKZF1, the Dmax was found to be 85% and the DC50 was determined as 28 nM. Also, on IKZF2, the Dmax worked out at 88% and the DC50 was found to be 111 nM.

On to `C[C@H]1CC[C@@H](NCc2ccc3c(c2)CN(C2CCC(=O)NC2=O)C3=O)CN1Cc1ccccc1` (stereo partly drawn) [Example 119, 3-(5-((((3R,6S)-1-benzyl-6-methylpiperidin-3-yl)amino)methyl)-1-oxoisoindolin-2-yl)piperidine-2,6-dione], for which, at IKZF1, the Dmax was found to be 94% and the DC50 was determined as 17 nM. Further, at IKZF2, the Dmax turned out to be 93% and the DC50 amounted to 105 nM.

Consider `O=C1CCC(N2Cc3cc(CN[C@@H]4CCC[C@H](Cc5ccccc5)C4)ccc3C2=O)C(=O)N1` (some centres unmarked) [Example 115], for which, at IKZF1, the Dmax is 87% and the DC50 was found to be 4 nM. At IKZF2, the Dmax was 97% and the DC50 was 8 nM.

In the case of `O=C1CCC(N2Cc3cc(CNC4CCN(c5cccnc5)CC4)ccc3C2=O)C(=O)N1` (centres unmarked) [Example 36, 3-(1-oxo-5-(((1-(pyridin-3-yl)piperidin-4-yl)amino)methyl)isoindolin-2-yl)piperidine-2,6-dione], on IKZF1, the Dmax amounted to 84% and the DC50 was 96 nM. Also, on IKZF2, the Dmax was 90% and the DC50 was found to be 588 nM.

As for `O=C1CCC(N2Cc3cc(CNC4CCC4)ccc3C2=O)C(=O)N1` (centres unmarked) [Example 41], the Dmax was determined as 31% at IKZF1 and 42% on IKZF2. In addition, the figures for the DC50 at IKZF1 and at IKZF2 were 51 nM and 373 nM, respectively.

As to `O=C1CCC(N2Cc3cc(CNCCCO)ccc3C2=O)C(=O)N1` (centres unmarked) [Example 55], at IKZF1, the Dmax was determined as 36% and the DC50 worked out at 394 nM. In addition, on IKZF2, the Dmax is 20% and the DC50 came to 1300 nM.

As for `COC(=O)C1(C)CCCC(NCc2ccc3c(c2)CN(C2CCC(=O)NC2=O)C3=O)C1` (centres unmarked) [Example 144], the Dmax at IKZF1 worked out at 50%; on IKZF2, 88%. The DC50 at IKZF1 was 137 nM; at IKZF2, 97 nM.
